18 molecules from patent US20250312499A1, “KISSPEPTIN RECEPTOR (KISS1R) TARGETED THERAPEUTICS AND USES THEREOF” (priority 2024, published 2025) can be followed below.

In the assay the target is human kisspeptin receptor (Homo sapiens (Human), UniProt Q969F8). Kind of assay: Human KISS1R binding assay (membrane competition binding). The settings on record: 90 min at room temperature; competition with 0.2 nM [125I]-metastin (45-54); Flp-In T-Rex 293 kisspeptin membranes; metal complexes nonradioactive Ga, In, Lu; read-out: hKiSSR Binding Ki (90 min). An outline of the steps: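 Radioligand competition: 0.2 nM [125I]-metastin (45-54) displaced by test ligand (usually 0–10,000 nM) over 90 min at room temperature, pH 7.4 buffer with 0.1% BSA. Receptor source is crude membrane (5–10 μg) from tetracycline-induced Flp-In T-Rex 293 cells. Bound label filtered and counted; Ki from non-linear regression.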
human kisspeptin receptor, sequence (Q969F8 whole entry): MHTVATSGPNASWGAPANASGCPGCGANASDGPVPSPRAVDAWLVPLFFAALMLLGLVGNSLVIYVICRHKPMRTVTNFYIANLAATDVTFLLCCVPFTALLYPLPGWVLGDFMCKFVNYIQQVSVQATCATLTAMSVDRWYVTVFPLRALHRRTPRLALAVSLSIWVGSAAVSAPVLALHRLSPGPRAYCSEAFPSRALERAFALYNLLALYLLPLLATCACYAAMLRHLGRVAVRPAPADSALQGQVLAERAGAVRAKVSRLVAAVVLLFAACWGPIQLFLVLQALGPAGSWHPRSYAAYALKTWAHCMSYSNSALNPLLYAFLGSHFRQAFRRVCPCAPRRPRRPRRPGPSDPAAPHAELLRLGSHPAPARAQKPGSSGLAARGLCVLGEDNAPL

Numbered stars: 1 amine (or outer) side, 2 acyl side, 3 side chain; on linkers, the order of the positions; unused ones are H or OH. Square brackets hold non-standard residues; d marks the D form. Side chains are listed from the residue outwards. Peptide text beside a SMILES is read from it. * marks the point of attachment. DOTA = O=C(O)CN1CCN(CC(=O)O)CCN(CC(=O)*)CCN(CC(=O)O)CC1; Ala(9-anthryl) = N[C@@H](Cc1c2ccccc2cc2ccccc12)C(=O)O; Gly(N-(3-F-4-Me-benzyl)) = Cc1ccc(CNCC(=O)*)cc1F; X4 = O=C(c1ccc(-c2ccccc2OCCCN[*:1])cc1)[*:2]; Api(1-amidino) = N=C(N)N1CCC(N)(C(=O)O)CC1; d(γGlu) = O=C(O)[C@@H](CCC(=O)[*:2])N[*:1]; Hydrocinnamoyl(4-I) = O=C(CCc1ccc(I)cc1)*; Phe(4-CN) = N#Cc1ccc(C[C@H](N)C(=O)O)cc1; Phe(3-F) = N[C@@H](Cc1cccc(F)c1)C(=O)O; γGlu = O=C(O)[C@H](CCC(=O)[*:2])N[*:1]; d2Nal = N[C@H](Cc1ccc2ccccc2c1)C(=O)O; Palmitoyl = CCCCCCCCCCCCCCCC(=O)*; Hyp = O=C(O)[C@@H]1C[C@@H](O)CN1; Trx = NC[C@H]1CC[C@H](C(=O)O)CC1; X1 = O=C(CN1CCC(N[*:1])CC1)[*:2]; dCya = N[C@H](CS(=O)(=O)O)C(=O)O; 4Pal = N[C@@H](Cc1ccncc1)C(=O)O; Cha = N[C@@H](CC1CCCCC1)C(=O)O; PEG4 = NCCOCCOCCOCCOCCC(=O)O; Lauroyl = CCCCCCCCCCCC(=O)*; 4Amb = NCc1ccc(C(=O)O)cc1; Nle = CCCC[C@H](N)C(=O)O; Octanoyl = CCCCCCCC(=O)*; Api = NC1(C(=O)O)CCNCC1; PEG2 = NCCOCCOCCC(=O)O; Ahx = NCCCCCC(=O)O; azaGly = NNC(=O)O; Sar = CNCC(=O)O

Usually Ki stands for the equilibrium dissociation constant of an inhibitor or competing ligand from its target.

`CC(C)C[C@H](NC(=O)NNC(=O)[C@H](Cc1ccccc1)NC(=O)[C@@H](NC(=O)[C@H](CC(N)=O)NC(=O)[C@@H](Cc1ccc2ccccc2c1)NC(=O)[C@@H](Cc1ccc(O)cc1)NC(=O)CCOCCOCCNC(=O)CCc1ccc(I)cc1)[C@@H](C)O)C(=O)NC1(C(=O)N[C@@H](Cc2c[nH]c3ccccc23)C(N)=O)CCN(C(=N)N)CC1` [Compound 394] ({Hydrocinnamoyl(4-I)-PEG2}-[dY][d2Nal]NTF[azaGly]L[Api(1-amidino)]W-NH2): the Ki was under 10 nM.

Take `CCCCCCCCCCCCCCCC(=O)N[C@H](Cc1ccc(O)cc1)C(=O)N[C@@H](CCCCNC(=O)CN1CCN(CC(=O)O)CCN(CC(=O)O)CCN(CC(=O)O)CC1)C(=O)N[C@@H](CC(N)=O)C(=O)N[C@H](C(=O)N[C@@H](Cc1ccccc1)C(=O)NNC(=O)N[C@@H](CC(C)C)C(=O)NC1(C(=O)N[C@@H](Cc2ccc(O)cc2)C(N)=O)CCN(C(=N)N)CC1)[C@@H](C)O` [Compound 330] (Palmitoyl-[dY]K(DOTA)NTF[azaGly]L[Api(1-amidino)]Y-NH2): the Ki was under 10 nM. To `Cc1ccc(CNCC(=O)N2CCC(NC(=O)[C@H](CC(C)C)NC(=O)NNC(=O)c3ccc(-c4ccccc4OCCCNC(=O)CCCCCNC(=O)CN4CCN(CC(=O)O)CCN(CC(=O)O)CCN(CC(=O)O)CC4)cc3)(C(=O)N[C@@H](Cc3c[nH]c4ccccc34)C(N)=O)CC2)cc1F` [Compound 297] ({DOTA-Ahx}-[X4][azaGly]L[Api](Gly(N-(3-F-4-Me-benzyl)))W-NH2) belongs under 10 nM; to `Cc1ccc(CNCC(=O)N2CCC(NC(=O)[C@H](CC(C)C)NC(=O)NNC(=O)[C@H](CC3CCCCC3)NC(=O)[C@@H](NC(=O)[C@H](CC(N)=O)NC(=O)[C@@H](Cc3ccc4ccccc4c3)NC(=O)[C@@H](Cc3ccc(O)cc3)NC(=O)CN3CCN(CC(=O)O)CCN(CC(=O)O)CCN(CC(=O)O)CC3)[C@@H](C)O)(C(=O)N[C@@H](Cc3c[nH]c4ccccc34)C(N)=O)CC2)cc1F` [Compound 318] ({DOTA}-[dY][d2Nal]NT[Cha][azaGly]L[Api](Gly(N-(3-F-4-Me-benzyl)))W-NH2), under 10 nM. With `Cc1ccc(CNCC(=O)N2CCC(NC(=O)[C@H](CC(C)C)NC(=O)NNC(=O)[C@H](Cc3ccccc3)NC(=O)CN(C)C(=O)CN(C)C(=O)CN3CCN(CC(=O)O)CCN(CC(=O)O)CCN(CC(=O)O)CC3)(C(=O)N[C@@H](Cc3c[nH]c4ccccc34)C(N)=O)CC2)cc1F` [Compound 17] ({DOTA}-[Sar][Sar]F[azaGly]L[Api](Gly(N-(3-F-4-Me-benzyl)))W-NH2) the figure was under 10 nM; with `CCCCCCCCCCCCCCCC(=O)N[C@@H](CCC(=O)N[C@@H](CCCCNC(=O)CCOCCOCCOCCOCCNC(=O)CN1CCN(CC(=O)O)CCN(CC(=O)O)CCN(CC(=O)O)CC1)C(=O)N[C@H](Cc1ccc(O)cc1)C(=O)N[C@H](Cc1c[nH]c2ccccc12)C(=O)N[C@@H](CC(N)=O)C(=O)N[C@H](C(=O)N[C@@H](Cc1ccccc1)C(=O)NNC(=O)N[C@@H](CC(C)C)C(=O)NC1(C(=O)N[C@@H](Cc2c[nH]c3ccccc23)C(N)=O)CCN(C(=O)CNCc2ccc(C)c(F)c2)CC1)[C@@H](C)O)C(=O)O` [Compound 119] ({Palmitoyl-γGlu}-K([PEG4-DOTA])[dY][dW]NTF[azaGly]L[Api](Gly(N-(3-F-4-Me-benzyl)))W-NH2), under 10 nM.

In the case of `CCCC[C@H](NC(=O)NNC(=O)[C@H](Cc1ccccc1)NC(=O)[C@@H](NC(=O)[C@H](CC(N)=O)NC(=O)[C@H](Cc1c2ccccc2cc2ccccc12)NC(=O)[C@@H](Cc1ccc(O)cc1)NC(=O)CN1CCN(CC(=O)O)CCN(CC(=O)O)CCN(CC(=O)O)CC1)[C@@H](C)O)C(=O)NC1(C(=O)N[C@@H](Cc2ccncc2)C(N)=O)CCN(C(=N)N)CC1` [Compound 123] ({DOTA}-[dY][Ala(9-anthryl)]NTF[azaGly][Nle][Api(1-amidino)][4Pal]-NH2), the Ki was over 100 nM. With `Cc1ccc(CNCC(=O)N2CCC(NC(=O)[C@H](CC(C)C)NC(=O)NNC(=O)[C@H](Cc3ccccc3)NC(=O)[C@H]3CC[C@H](CNC(=O)CC[C@@H](NC(=O)CN4CCN(CC(=O)O)CCN(CC(=O)O)CCN(CC(=O)O)CC4)C(=O)O)CC3)(C(=O)N[C@@H](Cc3c[nH]c4ccccc34)C(N)=O)CC2)cc1F` [Compound 165] ({DOTA-d(γGlu)-Trx}-F[azaGly]L[Api](Gly(N-(3-F-4-Me-benzyl)))W-NH2) the figure was under 10 nM. On to `Cc1ccc(CNCC(=O)N2CCC(NC(=O)[C@H](CC(C)C)NC(=O)NNC(=O)[C@H](Cc3ccccc3)NC(=O)[C@@H](NC(=O)[C@H](CC(N)=O)NC(=O)[C@H](CCC(=O)O)NC(=O)CCCCCNC(=O)CN3CCN(CC(=O)O)CCN(CC(=O)O)CCN(CC(=O)O)CC3)[C@@H](C)O)(C(=O)N[C@@H](Cc3c[nH]c4ccccc34)C(N)=O)CC2)cc1F` [Compound 238] ({DOTA-Ahx}-ENTF[azaGly]L[Api](Gly(N-(3-F-4-Me-benzyl)))W-NH2), for which the Ki is under 10 nM. With `Cc1ccc(CNCC(=O)N2CCC(NC(=O)[C@H](CC(C)C)NC(=O)NNC(=O)[C@H](Cc3ccccc3)NC(=O)c3ccc(CNC(=O)[C@@H](CS(=O)(=O)O)NC(=O)[C@@H](CS(=O)(=O)O)NC(=O)CN4CCN(CC(=O)O)CCN(CC(=O)O)CCN(CC(=O)O)CC4)cc3)(C(=O)N[C@@H](Cc3c[nH]c4ccccc34)C(N)=O)CC2)cc1F` [Compound 146] ({DOTA}-[dCya][dCya][4Amb]F[azaGly]L[Api](Gly(N-(3-F-4-Me-benzyl)))W-NH2) the figure was under 10 nM; with `CC(C)C[C@H](NC(=O)NNC(=O)[C@H](Cc1ccccc1)NC(=O)[C@@H](NC(=O)[C@H](CC(N)=O)NC(=O)[C@@H](Cc1ccc2ccccc2c1)NC(=O)[C@@H](Cc1ccc(O)cc1)NC(=O)CCCCCNC(=O)CN1CCN(CC(=O)O)CCN(CC(=O)O)CCN(CC(=O)O)CC1)[C@@H](C)O)C(=O)NC1(C(=O)N[C@@H](Cc2c[nH]c3ccccc23)C(N)=O)CCN(C(=N)N)CC1` [Compound 269] ({DOTA-Ahx}-[dY][d2Nal]NTF[azaGly]L[Api(1-amidino)]W-NH2), under 10 nM. With `CC(C)C[C@H](NC(=O)NNC(=O)[C@H](Cc1ccccc1)NC(=O)[C@@H](NC(=O)[C@H](CC(N)=O)NC(=O)[C@@H]1C[C@@H](O)CN1C(=O)[C@@H](Cc1ccc(O)cc1)NC(=O)CCCCCNC(=O)CN1CCN(CC(=O)O)CCN(CC(=O)O)CCN(CC(=O)O)CC1)[C@@H](C)O)C(=O)NC1(C(=O)N[C@@H](Cc2c[nH]c3ccccc23)C(N)=O)CCN(C(=N)N)CC1` [Compound 311] ({DOTA-Ahx}-[dY][Hyp]NTF[azaGly]L[Api(1-amidino)]W-NH2) the figure was under 10 nM. To `CCCCCCCCCCCC(=O)N[C@H](Cc1ccc(O)cc1)C(=O)N[C@H](Cc1ccc2ccccc2c1)C(=O)N[C@@H](CC(N)=O)C(=O)N[C@H](C(=O)N[C@@H](Cc1ccccc1)C(=O)NNC(=O)N[C@@H](CC(C)C)C(=O)NC1(C(=O)N[C@@H](Cc2ccc(O)cc2)C(N)=O)CCN(C(=O)CNC)CC1)[C@@H](C)O` [Compound 401] (Lauroyl-[dY][d2Nal]NTF[azaGly]L[Api](Sar)Y-NH2) belongs under 10 nM; to `Cc1ccc(CNCC(=O)N2CCC(NC(=O)[C@H](CC(C)C)NC(=O)NNC(=O)[C@H](Cc3ccccc3)NC(=O)CN3CCC(NC(=O)CN4CCN(CC(=O)O)CCN(CC(=O)O)CCN(CC(=O)O)CC4)CC3)(C(=O)N[C@@H](Cc3ccc(C#N)cc3)C(N)=O)CC2)cc1F` [Compound 244] ({DOTA}-[X1]F[azaGly]L[Api](Gly(N-(3-F-4-Me-benzyl)))[Phe(4-CN)]-NH2), under 10 nM; to `CC(C)C[C@H](NC(=O)NNC(=O)[C@H](Cc1ccccc1)NC(=O)[C@@H](NC(=O)[C@H](CC(N)=O)NC(=O)[C@H](CCCCNC(=O)CN1CCN(CC(=O)O)CCN(CC(=O)O)CCN(CC(=O)O)CC1)NC(=O)[C@@H](Cc1ccc(O)cc1)NC(=O)CCOCCOCCNC(=O)CCc1ccc(I)cc1)[C@@H](C)O)C(=O)NC1(C(=O)N[C@@H](Cc2ccccc2)C(N)=O)CCN(C(=N)N)CC1` [Compound 323] ({Hydrocinnamoyl(4-I)-PEG2}-[dY]K(DOTA)NTF[azaGly]L[Api(1-amidino)]F-NH2), under 10 nM. In the case of `Cc1ccc(CNCC(=O)N2CCC(NC(=O)[C@H](CC(C)C)NC(=O)NNC(=O)[C@H](Cc3cccc(F)c3)NC(=O)[C@@H](NC(=O)[C@H](CC(N)=O)NC(=O)[C@H](CCC(=O)O)NC(=O)[C@@H](Cc3ccc(O)cc3)NC(=O)CCCCCNC(=O)CN3CCN(CC(=O)O)CCN(CC(=O)O)CCN(CC(=O)O)CC3)[C@@H](C)O)(C(=O)N[C@@H](Cc3c[nH]c4ccccc34)C(N)=O)CC2)cc1F` [Compound 36] ({DOTA-Ahx}-[dY]ENT[Phe(3-F)][azaGly]L[Api](Gly(N-(3-F-4-Me-benzyl)))W-NH2), the Ki was under 10 nM.

As for `Cc1ccc(CNCC(=O)N2CCC(NC(=O)[C@H](CC(C)C)NC(=O)NNC(=O)[C@H](Cc3ccccc3)NC(=O)[C@H](C)NC(=O)[C@H](CC(N)=O)NC(=O)[C@@H](Cc3c[nH]c4ccccc34)NC(=O)[C@@H](Cc3ccc(O)cc3)NC(=O)CCCCCNC(=O)CN3CCN(CC(=O)O)CCN(CC(=O)O)CCN(CC(=O)O)CC3)(C(=O)N[C@@H](CC(C)C)C(N)=O)CC2)cc1F` [Compound 113] ({DOTA-Ahx}-[dY][dW]NAF[azaGly]L[Api](Gly(N-(3-F-4-Me-benzyl)))L-NH2), the Ki is under 10 nM. For `CCCCCCCC(=O)N[C@H](Cc1ccc(O)cc1)C(=O)N[C@H](Cc1c[nH]c2ccccc12)C(=O)N[C@@H](CC(N)=O)C(=O)N[C@H](C(=O)N[C@@H](CC1CCCCC1)C(=O)NNC(=O)N[C@@H](CC(C)C)C(=O)NC1(C(=O)N[C@@H](Cc2c[nH]c3ccccc23)C(N)=O)CCN(C(=O)CNCc2ccc(C)c(F)c2)CC1)[C@@H](C)O` [Compound 405] (Octanoyl-[dY][dW]NT[Cha][azaGly]L[Api](Gly(N-(3-F-4-Me-benzyl)))W-NH2), the Ki was under 10 nM.
